Source: paper PMC12668308, “A Novel Antimalarial Agent that Inhibits Protein Synthesis in Plasmodium falciparum” (Angewandte Chemie (International Ed. in English), 2025)

How the values were obtained:
Assay in all cases: [3H]-hypoxanthine incorporation assay
[1] = test system: laboratory-selected Dd2 strains; assay type: cell-based; settings: Plasmodium falciparum, DD2, read-out: IC50 against the laboratory-selected Dd2 strains
Description: To determine potential cross resistance against compound 31 in parasites harboring mutations that confer resistance to current antimalarials, its activity was assessed against drug‐resistant field isolates as previously described. […] A cross‐resistance was considered when there was more than a 10‐fold shift in the IC50 relative to the NF54 strain. […] Because of this, 31 was tested against laboratory‐selected Dd2 strains, which contained additional resistance variants to preclinical and clinical drug candidates.
P. falciparum asexual blood stage parasites were cultured in human red blood cells (RBC, Blutspende SRK, Zurich) at a hematocrit of 5% in RPMI 1640 medium. […] Parasites were harvested on a glass-fiber filter with a Microbeta FilterMate cell harvester (Perkin Elmer, Waltham, USA) and radioactivity was counted using a MicroBeta2 liquid scintillation counter (Perkin Elmer, Waltham, US). The results were recorded, processed by subtraction of the mean background signal obtained from the uninfected RBC controls and expressed as percentage of untreated controls. The fifty percent inhibitory concentration (IC50) was calculated by using nonlinear, four parameter (variable slope) curve fitting as described ^[33^] after importing into GraphPad Prism (version 8.3.0).

[2] = test system: Dd2 GNF156 (Dd2 + pfcarl); assay type: cell-based, Plasmodium falciparum
Description: (§1) ^[a]72-h [^3H] hypoxanthhine incorporation assay. Data is expressed as mean±s.d..
(§2) P. falciparum asexual blood stage parasites were cultured in human red blood cells (RBC, Blutspende SRK, Zurich) at a hematocrit of 5% in RPMI 1640 medium. The RPMI 1640 medium (ThermoFisher Scientific #51800−043) was supplemented with the following: 24 mM NaHCO3 (pH 7.3, Sigma-Aldrich #31437−500G-R), 25 mM Hepes (Sigma-Aldrich #H4034−500G), 0.36 mM hypoxanthine (Sigma-Aldrich # H9377−25G), 100 µg mL^-1 neomycin (Sigma-Aldrich #N6386−100G) and 0.5% Albumax II (Thermo Fisher #11021−045). Additionally, 2 mM choline chloride (279 mg/L, Sigma-Aldrich #C7527−100G) was added to the culture to block the induction of sexual commitment as described. ^[31^] The RPMI 1640 medium and components were dissolved in water (Milli-Q purified), stirred for at least 3 h, and then sterile filtered (0.22 μm pore size) with a bottle top filter (Corning # 431118). Parasite cultures were maintained in an atmosphere of 3% O2, 4% CO2, and 93% N2 in air-tight chambers at 37 °C. The [^3H]-hypoxanthine incorporation assay was used to test compound activity in the specific parasite lines as described.^[32^] Briefly, compounds were dissolved in DMSO (10 mM) and diluted in a hypoxanthine-free culture medium. A limiting dilution was performed over a 64-fold range (6-step twofold dilution) in a 96-well plate in duplicates. For every starting concentration, a limiting dilution was performed over a 64-fold range (6-step twofold dilution) in a 96-well plate in two biological duplicates. Parasites were added at 100 µL to each well containing the compound to obtain a final parasitemia of 0.3% and haematocrit of 1.25%. The plates were incubated for 48 h before 0.25 µCi of [^3H]-hypoxanthine was added per well for an additional 24 h. Parasites were harvested on a glass-fiber filter with a Microbeta FilterMate cell harvester (Perkin Elmer, Waltham, USA) and radioactivity was counted using a MicroBeta2 liquid scintillation counter (Perkin Elmer, Waltham, US). The results were recorded, processed by subtraction of the mean background signal obtained from the uninfected RBC controls and expressed as percentage of untreated controls. The fifty percent inhibitory concentration (IC50) was calculated by using nonlinear, four parameter (variable slope) curve fitting as described ^[33^] after importing into GraphPad Prism (version 8.3.0).

[3] = test system: Dd2 Fosmidomycin (Dd2 + pfdxr); assay type: cell-based, Plasmodium falciparum
Description: as §1, §2

[4] = test system: Dd2 MMV390048 (Dd2 + pfpI4k); assay type: cell-based, Plasmodium falciparum
Description: as §1, §2

P. falciparum Dd2 = assay type: cell-based, Plasmodium falciparum
Description: as §1, §2

[5] = test system: Dd2 DSM265 (Dd2 + pfdhodh); assay type: cell-based, Plasmodium falciparum
Description: as §1, §2

P. falciparum K1 = assay type: cell-based, Plasmodium falciparum
Description: as §1, §2

[6] = test system: Dd2 NITD609 (Dd2 + pfatp4); assay type: cell-based, Plasmodium falciparum
Description: as §1, §2

[7] = test system: Dd2 ELQ300 (Dd2 + pfcytb); assay type: cell-based, Plasmodium falciparum
Description: as §1, §2

[8] = test system: Dd2 DDD107458 (Dd2 + pfeEF2); assay type: cell-based, Plasmodium falciparum
Description: as §1, §2

[9] = Plasmodium falciparum, DD2, 72 h

Q: With CN1CCN(Cc2ccc(O)c(NC(=O)c3cccc(Oc4cc(C(F)(F)F)ccn4)c3)c2)CC1 [Compound 31, N-(2-hydroxy-5-((4-methylpiperazin-1-yl)methyl)phenyl)-3-((4-(trifluoromethyl)pyridin-2-yl)oxy)benzamide] as the compound, how does the IC50 [1] read?
A: 2.4 to 6.6 nM

Q: What about the “IC50 fold shift relative to Dd2 strain” value ([2]; Dd2 GNF156) of the same compound?
A: 0.7

Q: What about the IC50 [2, 9] of the same compound?
A: 6.6 ± 0.5 nM

Q: And the “IC50 fold shift relative to Dd2 strain” value ([3]; Dd2 Fosmidomycin)?
A: 0.3

Q: What about the IC50 [3, 9] of the same compound?
A: 2.4 ± 0.6 nM

Q: What about the “IC50 fold shift relative to Dd2 strain” value ([4]; Dd2 MMV390048) of the same compound?
A: 0.5

Q: What about the IC50 [4, 9] of the same compound?
A: 4.8 ± 1.5 nM

Q: What about the “IC50 fold shift relative to Dd2 strain” value (P. falciparum Dd2; Dd2) of the same compound?
A: 1.0

Q: And the “IC50 ratio relative to NF54 strain” value (P. falciparum Dd2; Dd2)?
A: 5.1

Q: What about the IC50 (P. falciparum Dd2; [9]) of the same compound?
A: 9.3 ± 0.4 nM

Q: And the “IC50 fold shift relative to Dd2 strain” value ([5]; Dd2 DSM265)?
A: 0.3

Q: And the IC50 ([5]; Plasmodium falciparum, 72 h)?
A: 2.8 ± 0.5 nM

Q: And the “IC50 ratio relative to NF54 strain” value (P. falciparum K1; K1)?
A: 0.7

Q: And the IC50 (P. falciparum K1; Plasmodium falciparum, K1, 72 h)?
A: 1.3 ± 0.2 nM

Q: What about the “IC50 fold shift relative to Dd2 strain” value ([6]; Dd2 NITD609) of the same compound?
A: 0.7

Q: What about the IC50 [6, 9] of the same compound?
A: 6.2 ± 2.5 nM

Q: What about the “IC50 fold shift relative to Dd2 strain” value ([7]; Dd2 ELQ300) of the same compound?
A: 0.5

Q: And the IC50 [7, 9]?
A: 4.4 ± 0.1 nM

Q: And the “IC50 fold shift relative to Dd2 strain” value ([8]; Dd2 DDD107458)?
A: 0.6

Q: And the IC50 [8, 9]?
A: 5.6 ± 0.9 nM
